≈ marks a conversion by molar mass, not a printed value.
How the values were obtained:
[1] = tested on: Mycobacterium tuberculosis; experiment: Antimycobacterial activity against Mycobacterium tuberculosis H37Rv after 3 days by rapid direct susceptibility test; assay type: functional; details: 72 h
[2] = Cytotoxicity against African green monkey Vero cells assessed as reduction in cell viability after 72 hrs by MTT assay; assay type: cell-based; details: chlorocebus sabaeus
[3] = Selectivity index, ratio of CC50 against African green monkey Vero cells to MIC for Mycobacterium tuberculosis H37Rv; assay type: toxicity; details: read-out: Selectivity Index
[4] = Tmax in ICR mouse at 50 mg/kg, po by HPLC analysis; assay type: ADME, organism-based; details: in vivo
[5] = AUC (0 to infinity) in ICR mouse at 50 mg/kg, po by HPLC analysis; assay type: ADME, organism-based; set-up: dose 50 mg/kg, time infinity, route oral; details: in vivo
[6] = Cmax in ICR mouse at 50 mg/kg, po by HPLC analysis; assay type: ADME, organism-based; set-up: dose 50 mg/kg, route oral; details: in vivo
[7] = tested on: Mycobacterium tuberculosis; experiment: Potency index, ratio of rifampicin MIC to compound MIC for antimycobacterial activity against Mycobacterium tuberculosis H37Rv; assay type: functional
[8] = tested on: Mycobacterium tuberculosis; experiment: Potency index, ratio of moxifloxacin MIC to compound MIC for antimycobacterial activity against Mycobacterium tuberculosis H37Rv; assay type: functional
[9] = Elimination half life in ICR mouse at 50 mg/kg, po by HPLC analysis; assay type: ADME, organism-based; details: in vivo, read-out: beta t1/2 (converted)
[10] = Half life in mouse microsomes; assay type: ADME, Microsome

Compound | MIC [1] [µg/mL] | CC50 at 72 h [2] [µg/mL] | selectivity ratio [3] | Tmax [4] [h] | AUC(0-inf) [5] [ng·h/mL] | Cmax [6] [ng/mL] | Ratio [7] | Ratio [8] | half-life [9] [h] | half-life [10] [h]
CO/N=C1/C(=O)N(CCCn2cc(CN3CCC[C@@H]4CN(c5c(F)cc6c(=O)c(C(=O)O)cn(C7CC7)c6c5OC)C[C@@H]43)nn2)c2ccccc21 | 0.1 (≈ 0.143 µM) | 16 (≈ 22.9 µM) | 160 |  |  |  |  |  |  | 
COc1c(N2C[C@H]3CCCN(Cc4cn(CCCN5C(=O)C(=O)c6cc(C)ccc65)nn4)[C@H]3C2)c(F)cc2c(=O)c(C(=O)O)cn(C3CC3)c12 | 0.39 (≈ 0.57 µM) | 32 (≈ 46.8 µM) | 82 |  |  |  |  |  |  | 
CO[C@H]1/C=C/O[C@@]2(C)Oc3c(C)c(O)c4c(O)c(c(/C=N/N5CCN(C)CC5)c(O)c4c3C2=O)NC(=O)/C(C)=C\C=C\[C@H](C)[C@H](O)[C@@H](C)[C@@H](O)[C@@H](C)[C@H](OC(C)=O)[C@@H]1C [RIFAMPIN] | 0.39 (≈ 0.474 µM) | 512 (≈ 622 µM) | 1310 |  |  |  |  |  |  | 
COc1c(N2C[C@H]3CCCN(Cc4cn(CCCN5C(=O)C(=O)c6cc(F)ccc65)nn4)[C@H]3C2)c(F)cc2c(=O)c(C(=O)O)cn(C3CC3)c12 | 0.78 (≈ 1.13 µM) | 16 (≈ 23.3 µM) | 20.5 |  |  |  |  |  |  | 
COc1c(N2C[C@H]3CCCN(Cc4cn(CCCN5C(=O)/C(=N/O)c6cc(C)ccc65)nn4)[C@H]3C2)c(F)cc2c(=O)c(C(=O)O)cn(C3CC3)c12 | 1.56 (≈ 2.23 µM) | 8 (≈ 11.4 µM) | 5.1 |  |  |  |  |  |  | 
COc1c(N2C[C@H]3CCCN(Cc4cn(CCCN5C(=O)C(=O)c6ccccc65)nn4)[C@H]3C2)c(F)cc2c(=O)c(C(=O)O)cn(C3CC3)c12 | 1.56 (≈ 2.33 µM) | 16 (≈ 23.9 µM) | 10.2 |  |  |  |  |  |  | 
CCO/N=C1/C(=O)N(CCCn2cc(CN3CCC[C@@H]4CN(c5c(F)cc6c(=O)c(C(=O)O)cn(C7CC7)c6c5OC)C[C@@H]43)nn2)c2ccc(F)cc21 | 0.2 (≈ 0.274 µM) | 4 (≈ 5.47 µM) | 20 |  |  |  |  |  |  | 
COc1c(N2C[C@@H]3CCCN[C@@H]3C2)c(F)cc2c(=O)c(C(=O)O)cn(C3CC3)c12 [MOXIFLOXACIN] | 0.1 (≈ 0.249 µM) | 128 (≈ 319 µM) |  | 1.08 | 7030 | 2730 |  |  |  | 
COc1c(N2C[C@H]3CCCN(Cc4cn(CCCN5C(=O)/C(=N/O)c6ccccc65)nn4)[C@H]3C2)c(F)cc2c(=O)c(C(=O)O)cn(C3CC3)c12 | 0.78 (≈ 1.14 µM) | 8 (≈ 11.7 µM) | 10.2 |  |  |  |  |  |  | 
COc1c(N2C[C@H]3CCCN(Cc4cn(CCCN5C(=O)/C(=N/O)c6cc(F)ccc65)nn4)[C@H]3C2)c(F)cc2c(=O)c(C(=O)O)cn(C3CC3)c12 | 0.78 (≈ 1.11 µM) | 2 (≈ 2.85 µM) | 2.6 |  |  |  |  |  |  | 
NNC(=O)c1ccncc1 [ISONIAZID] | 0.05 (≈ 0.365 µM) | 128 (≈ 933 µM) | 2560 |  |  |  |  |  |  | 
CO/N=C1/C(=O)N(CCCn2cc(CN3CCC[C@@H]4CN(c5c(F)cc6c(=O)c(C(=O)O)cn(C7CC7)c6c5OC)C[C@@H]43)nn2)c2ccc(F)cc21 | 0.05 (≈ 0.0698 µM) | 4 (≈ 5.58 µM) | 80 | 1.33 | 1240 | 243 | 2 - 8 | 2 - 8 | 3.87 | 0.228
CCO/N=C1/C(=O)N(CCCn2cc(CN3CCC[C@@H]4CN(c5c(F)cc6c(=O)c(C(=O)O)cn(C7CC7)c6c5OC)C[C@@H]43)nn2)c2ccc(C)cc21 | 0.39 (≈ 0.537 µM) | 4 (≈ 5.5 µM) | 10.2 |  |  |  |  |  |  | 
CCO/N=C1/C(=O)N(CCCn2cc(CN3CCC[C@@H]4CN(c5c(F)cc6c(=O)c(C(=O)O)cn(C7CC7)c6c5OC)C[C@@H]43)nn2)c2ccccc21 | 0.39 (≈ 0.547 µM) | 16 (≈ 22.4 µM) | 41 |  |  |  |  |  |  | 
CO/N=C1/C(=O)N(CCCn2cc(CN3CCC[C@@H]4CN(c5c(F)cc6c(=O)c(C(=O)O)cn(C7CC7)c6c5OC)C[C@@H]43)nn2)c2ccc(C)cc21 | 0.39 (≈ 0.547 µM) | 8 (≈ 11.2 µM) | 20.5 |  |  |  |  |  |  | 
